Source: article PMC9898036, “VIP152 is a selective CDK9 inhibitor with pre-clinical in vitro and in vivo efficacy in chronic lymphocytic leukemia” (Leukemia, 2022)
Where two headings read alike, the source gives them in different places.

Tests used:
HIPK1 = HIPK1 (Homo sapiens, UniProt Q86Z02); experiment: KINOMEscan: HIPK1; type: binding; conditions: 1000 nM, read-out: Percent Control
STK36 = STK36 (Homo sapiens, UniProt Q9NRP7); experiment: KINOMEscan: STK36; type: binding; conditions: 100 nM, read-out: Percent Control
TGFBR1 = TGFBR1 (Homo sapiens, UniProt P36897); experiment: KINOMEscan: TGFBR1; type: binding; conditions: 100 nM, read-out: Percent Control
[1] = molecular target: RSK2(Kin.Dom.1-N-terminal) (Homo sapiens, UniProt P51812); experiment: KINOMEscan: RSK2(Kin.Dom.1-N-terminal); type: binding; conditions: 100 nM, read-out: Percent Control
[2] = molecular target: JAK3(JH1domain-catalytic) (Homo sapiens, UniProt P52333); experiment: KINOMEscan: JAK3(JH1domain-catalytic); type: binding; conditions: 1000 nM, read-out: Percent Control
[3] = parameters: method as in PMID 35046056; conditions: human, cited from earlier work
WNK1 = WNK1 (Homo sapiens, UniProt Q9H4A3); experiment: KINOMEscan: WNK1; type: binding; conditions: 100 nM, read-out: Percent Control
PKNB(M.tuberculosis) = PKNB(M.tuberculosis) (Mycobacterium tuberculosis, UniProt P9WI81); experiment: DiscoverX KINOMEscan kinase profiling: PKNB(M.tuberculosis); type: binding; conditions: PKNB(M.tuberculosis) (Entrez pknB); 100 nM; read-out: Percent Control
MELK = MELK (Homo sapiens, UniProt Q14680); experiment: KINOMEscan: MELK; type: binding; conditions: 1000 nM, read-out: Percent Control
AURKB = AURKB (Homo sapiens, UniProt Q96GD4); experiment: KINOMEscan: AURKB; type: binding; conditions: 1000 nM, read-out: Percent Control
Endothelin ETB = Endothelin ETB (Homo sapiens, UniProt P24530); experiment: Eurofins Diversity Panel; type: binding; conditions: hum, Conc. 10 μM
EGFR(L858R,T790M) = EGFR(L858R,T790M) (Homo sapiens, UniProt P00533, L858R/T790M); experiment: KINOMEscan: EGFR(L858R,T790M); type: binding; conditions: 1000 nM, read-out: Percent Control
MEK1 = MEK1 (Homo sapiens, UniProt Q02750); experiment: KINOMEscan: MEK1; type: binding; conditions: 1000 nM, read-out: Percent Control
[4] = molecular target: JAK1(JH1domain-catalytic) (Homo sapiens, UniProt P23458); experiment: KINOMEscan: JAK1(JH1domain-catalytic); type: binding; conditions: 1000 nM, read-out: Percent Control
LRRK2(G2019S) = LRRK2(G2019S) (Homo sapiens, UniProt Q5S007, G2019S); experiment: KINOMEscan: LRRK2(G2019S); type: binding; conditions: 1000 nM, read-out: Percent Control
FLT4 = FLT4 (Homo sapiens, UniProt P35916); experiment: KINOMEscan: FLT4; type: binding; conditions: 1000 nM, read-out: Percent Control
FGR = FGR (Homo sapiens, UniProt P09769); experiment: KINOMEscan: FGR; type: binding; conditions: 1000 nM, read-out: Percent Control
EGFR(L858R) = EGFR(L858R) (Homo sapiens, UniProt P00533, L858R); experiment: KINOMEscan: EGFR(L858R); type: binding; conditions: 1000 nM, read-out: Percent Control
[5] = molecular target: TYK2(JH1domain-catalytic) (Homo sapiens, UniProt P29597); experiment: KINOMEscan: TYK2(JH1domain-catalytic); type: binding; conditions: 100 nM, read-out: Percent Control
MEK6 = MEK6 (Homo sapiens, UniProt P52564); experiment: KINOMEscan: MEK6; type: binding; conditions: 1000 nM, read-out: Percent Control
IRAK3 = IRAK3 (Homo sapiens, UniProt Q9Y616); experiment: KINOMEscan: IRAK3; type: binding; conditions: 1000 nM, read-out: Percent Control
WEE1 = WEE1 (Homo sapiens, UniProt P30291); experiment: KINOMEscan: WEE1; type: binding; conditions: 100 nM, read-out: Percent Control
SgK110 = SgK110 (Homo sapiens, UniProt P0C264); experiment: KINOMEscan: SgK110; type: binding; conditions: 100 nM, read-out: Percent Control
BRSK1 = BRSK1 (Homo sapiens, UniProt Q8TDC3); experiment: KINOMEscan: BRSK1; type: binding; conditions: 1000 nM, read-out: Percent Control
GRK1 = GRK1 (Homo sapiens, UniProt Q15835); experiment: KINOMEscan: GRK1; type: binding; conditions: 1000 nM, read-out: Percent Control
TSSK1B = TSSK1B (Homo sapiens, UniProt Q9BXA7); experiment: KINOMEscan: TSSK1B; type: binding; conditions: 100 nM, read-out: Percent Control
FLT3(D835H) = FLT3(D835H) (Homo sapiens, UniProt P36888, D835H); experiment: KINOMEscan: FLT3(D835H); type: binding; conditions: 1000 nM, read-out: Percent Control
α2C receptor = molecular target: T1, α2C receptor (Homo sapiens, UniProt P18825); experiment: Eurofins Diversity Panel: adrenergic α2C receptor; type: binding
T1 construct: purchased Eurofins

MARK1 = MARK1 (Homo sapiens, UniProt Q9P0L2); experiment: KINOMEscan: MARK1; type: binding; conditions: 1000 nM, read-out: Percent Control
LKB1 = LKB1 (Homo sapiens, UniProt Q15831); experiment: KINOMEscan: LKB1; type: binding; conditions: 1000 nM, read-out: Percent Control
FER = FER (Homo sapiens, UniProt P16591); experiment: KINOMEscan: FER; type: binding; conditions: 1000 nM, read-out: Percent Control

HIPK1, sequence (Q86Z02 whole entry): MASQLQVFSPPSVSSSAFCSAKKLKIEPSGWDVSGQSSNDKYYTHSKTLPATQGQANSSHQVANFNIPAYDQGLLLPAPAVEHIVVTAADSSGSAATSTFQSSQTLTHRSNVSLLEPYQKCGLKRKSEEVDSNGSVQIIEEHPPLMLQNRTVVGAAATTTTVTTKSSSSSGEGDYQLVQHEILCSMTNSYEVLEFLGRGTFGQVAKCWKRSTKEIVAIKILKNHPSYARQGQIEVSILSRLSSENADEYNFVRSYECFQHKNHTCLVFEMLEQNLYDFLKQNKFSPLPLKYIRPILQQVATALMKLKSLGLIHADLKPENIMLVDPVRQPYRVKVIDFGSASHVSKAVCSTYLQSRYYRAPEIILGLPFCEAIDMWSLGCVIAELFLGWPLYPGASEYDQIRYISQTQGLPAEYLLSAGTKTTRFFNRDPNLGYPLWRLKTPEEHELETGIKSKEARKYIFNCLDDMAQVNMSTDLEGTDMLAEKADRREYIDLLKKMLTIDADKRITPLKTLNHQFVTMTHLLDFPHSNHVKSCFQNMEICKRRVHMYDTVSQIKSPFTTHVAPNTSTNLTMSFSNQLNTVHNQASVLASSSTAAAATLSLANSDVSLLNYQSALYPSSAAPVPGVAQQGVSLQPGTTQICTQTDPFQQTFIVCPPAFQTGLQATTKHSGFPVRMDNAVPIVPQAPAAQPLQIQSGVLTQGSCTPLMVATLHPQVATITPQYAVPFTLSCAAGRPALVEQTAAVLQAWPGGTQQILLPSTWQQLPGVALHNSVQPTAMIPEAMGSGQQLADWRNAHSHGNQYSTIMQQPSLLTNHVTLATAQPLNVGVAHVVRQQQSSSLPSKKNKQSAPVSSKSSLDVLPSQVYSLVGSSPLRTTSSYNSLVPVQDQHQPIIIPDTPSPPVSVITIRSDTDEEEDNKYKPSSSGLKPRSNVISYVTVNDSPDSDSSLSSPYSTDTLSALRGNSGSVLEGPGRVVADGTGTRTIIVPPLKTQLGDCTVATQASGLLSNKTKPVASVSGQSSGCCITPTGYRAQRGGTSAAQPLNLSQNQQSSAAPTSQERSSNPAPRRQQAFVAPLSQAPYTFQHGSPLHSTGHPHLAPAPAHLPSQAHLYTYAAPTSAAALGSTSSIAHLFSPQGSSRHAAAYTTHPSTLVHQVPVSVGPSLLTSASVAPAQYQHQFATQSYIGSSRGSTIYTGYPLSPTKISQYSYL
BRSK1, sequence (Q8TDC3 whole entry): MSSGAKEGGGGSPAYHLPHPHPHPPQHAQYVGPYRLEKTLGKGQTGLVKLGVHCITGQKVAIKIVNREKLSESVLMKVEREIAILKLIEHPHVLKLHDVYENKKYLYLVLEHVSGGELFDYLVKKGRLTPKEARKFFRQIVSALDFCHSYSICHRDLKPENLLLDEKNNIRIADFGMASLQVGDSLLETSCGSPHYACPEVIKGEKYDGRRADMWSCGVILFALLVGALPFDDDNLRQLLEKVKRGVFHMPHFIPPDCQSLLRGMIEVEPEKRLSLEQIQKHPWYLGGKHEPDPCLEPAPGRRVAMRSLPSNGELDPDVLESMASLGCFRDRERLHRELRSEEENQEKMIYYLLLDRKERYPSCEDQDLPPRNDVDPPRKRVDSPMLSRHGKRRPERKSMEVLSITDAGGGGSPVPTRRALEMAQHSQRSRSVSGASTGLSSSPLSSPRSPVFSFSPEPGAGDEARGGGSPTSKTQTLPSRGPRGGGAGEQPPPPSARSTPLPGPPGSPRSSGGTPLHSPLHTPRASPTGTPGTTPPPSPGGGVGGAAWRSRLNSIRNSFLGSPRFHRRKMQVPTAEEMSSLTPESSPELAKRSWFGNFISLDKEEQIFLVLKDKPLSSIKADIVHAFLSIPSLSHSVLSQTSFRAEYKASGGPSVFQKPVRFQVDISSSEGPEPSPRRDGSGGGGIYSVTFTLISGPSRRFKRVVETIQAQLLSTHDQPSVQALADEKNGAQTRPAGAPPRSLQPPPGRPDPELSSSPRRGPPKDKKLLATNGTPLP
RSK2(Kin.Dom.1-N-terminal), sequence (P51812 1-397 limits assumed): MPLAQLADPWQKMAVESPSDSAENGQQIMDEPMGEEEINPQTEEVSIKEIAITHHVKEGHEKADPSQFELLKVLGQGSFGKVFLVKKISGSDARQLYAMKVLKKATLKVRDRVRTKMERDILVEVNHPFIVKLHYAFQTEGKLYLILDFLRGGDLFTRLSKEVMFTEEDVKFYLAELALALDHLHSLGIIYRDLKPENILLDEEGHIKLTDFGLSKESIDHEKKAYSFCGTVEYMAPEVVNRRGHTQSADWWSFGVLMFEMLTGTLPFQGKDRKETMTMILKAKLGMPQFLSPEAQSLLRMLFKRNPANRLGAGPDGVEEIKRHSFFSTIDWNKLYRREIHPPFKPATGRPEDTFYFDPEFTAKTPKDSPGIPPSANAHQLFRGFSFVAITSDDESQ
LRRK2(G2019S), sequence (Q5S007 whole entry G2019S): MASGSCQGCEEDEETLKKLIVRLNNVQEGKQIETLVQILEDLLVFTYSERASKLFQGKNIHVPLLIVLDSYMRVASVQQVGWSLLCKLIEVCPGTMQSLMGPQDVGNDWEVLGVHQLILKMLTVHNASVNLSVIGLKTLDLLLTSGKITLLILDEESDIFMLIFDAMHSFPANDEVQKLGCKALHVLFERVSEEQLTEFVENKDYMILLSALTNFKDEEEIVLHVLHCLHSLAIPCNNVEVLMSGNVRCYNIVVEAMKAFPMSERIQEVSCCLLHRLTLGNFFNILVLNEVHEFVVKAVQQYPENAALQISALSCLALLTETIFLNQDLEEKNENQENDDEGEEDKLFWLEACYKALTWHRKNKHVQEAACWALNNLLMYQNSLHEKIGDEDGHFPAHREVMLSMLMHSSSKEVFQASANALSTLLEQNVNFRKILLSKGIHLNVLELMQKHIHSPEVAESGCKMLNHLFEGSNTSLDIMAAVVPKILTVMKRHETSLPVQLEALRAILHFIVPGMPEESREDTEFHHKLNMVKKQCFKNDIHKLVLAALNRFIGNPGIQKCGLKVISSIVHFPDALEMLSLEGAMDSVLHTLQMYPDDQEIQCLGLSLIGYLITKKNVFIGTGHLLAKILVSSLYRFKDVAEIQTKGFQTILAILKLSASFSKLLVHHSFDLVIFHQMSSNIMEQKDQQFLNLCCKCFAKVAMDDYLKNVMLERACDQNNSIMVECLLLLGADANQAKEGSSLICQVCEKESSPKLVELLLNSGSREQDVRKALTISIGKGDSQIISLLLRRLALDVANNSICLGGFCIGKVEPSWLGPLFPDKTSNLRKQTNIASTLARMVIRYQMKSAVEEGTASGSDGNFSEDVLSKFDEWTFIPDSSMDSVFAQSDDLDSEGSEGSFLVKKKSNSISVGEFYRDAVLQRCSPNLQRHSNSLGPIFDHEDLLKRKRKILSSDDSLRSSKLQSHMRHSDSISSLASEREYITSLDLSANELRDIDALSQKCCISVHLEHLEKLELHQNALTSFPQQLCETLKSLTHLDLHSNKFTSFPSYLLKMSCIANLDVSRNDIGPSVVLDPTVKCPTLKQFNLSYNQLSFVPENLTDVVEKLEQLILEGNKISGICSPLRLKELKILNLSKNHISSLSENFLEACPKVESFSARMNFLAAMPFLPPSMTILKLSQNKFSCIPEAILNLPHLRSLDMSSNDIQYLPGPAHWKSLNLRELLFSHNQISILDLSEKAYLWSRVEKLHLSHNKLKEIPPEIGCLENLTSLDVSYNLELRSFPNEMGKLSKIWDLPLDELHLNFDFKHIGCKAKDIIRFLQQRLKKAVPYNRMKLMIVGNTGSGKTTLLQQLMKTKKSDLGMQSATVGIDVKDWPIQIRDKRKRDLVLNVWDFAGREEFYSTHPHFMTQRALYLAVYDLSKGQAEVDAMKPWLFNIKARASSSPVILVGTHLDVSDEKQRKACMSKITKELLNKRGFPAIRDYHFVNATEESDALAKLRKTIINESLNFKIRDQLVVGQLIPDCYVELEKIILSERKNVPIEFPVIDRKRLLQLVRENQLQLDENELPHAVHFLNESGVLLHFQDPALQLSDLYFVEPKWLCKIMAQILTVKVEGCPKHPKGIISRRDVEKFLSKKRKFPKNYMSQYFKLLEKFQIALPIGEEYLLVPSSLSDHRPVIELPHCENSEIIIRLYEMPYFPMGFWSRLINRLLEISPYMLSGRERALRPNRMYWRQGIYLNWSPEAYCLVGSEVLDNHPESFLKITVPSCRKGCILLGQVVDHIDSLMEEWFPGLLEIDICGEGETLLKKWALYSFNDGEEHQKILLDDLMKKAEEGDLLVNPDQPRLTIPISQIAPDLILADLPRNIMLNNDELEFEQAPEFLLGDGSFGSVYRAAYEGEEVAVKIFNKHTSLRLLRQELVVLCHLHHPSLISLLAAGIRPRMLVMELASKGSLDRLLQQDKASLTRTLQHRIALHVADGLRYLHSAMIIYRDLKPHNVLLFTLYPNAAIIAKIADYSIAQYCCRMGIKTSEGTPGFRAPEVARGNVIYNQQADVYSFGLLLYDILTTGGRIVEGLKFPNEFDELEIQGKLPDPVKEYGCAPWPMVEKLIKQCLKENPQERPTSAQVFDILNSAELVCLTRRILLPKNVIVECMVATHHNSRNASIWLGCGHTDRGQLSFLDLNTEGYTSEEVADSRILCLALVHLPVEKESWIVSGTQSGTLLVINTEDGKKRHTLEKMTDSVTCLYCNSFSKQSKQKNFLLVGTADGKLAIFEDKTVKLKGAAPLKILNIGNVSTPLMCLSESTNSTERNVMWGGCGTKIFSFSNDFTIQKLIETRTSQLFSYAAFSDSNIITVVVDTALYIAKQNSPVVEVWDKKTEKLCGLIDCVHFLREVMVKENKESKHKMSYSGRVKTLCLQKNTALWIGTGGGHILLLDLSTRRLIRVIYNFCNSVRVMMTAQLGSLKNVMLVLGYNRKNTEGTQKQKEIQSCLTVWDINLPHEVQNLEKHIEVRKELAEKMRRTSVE

Compound: COc1cc(F)ccc1-c1cc(Nc2cc(CS(C)(=N)=O)ccn2)ncc1F (centres unmarked) [VIP152]
- remaining binding at 1 µM (HIPK1): 54%
- remaining binding at 0.1 µM (STK36): 100%
- remaining binding at 0.1 µM (TGFBR1): 100%
- remaining binding at 0.1 µM [1]: 100%
- remaining binding at 1 µM [2]: 74%
- Cmax [3]: 836 µg/L
- Cmax ([3]; read-out: Cmax, corresponding concentration): 2000 nM
- remaining binding at 0.1 µM (WNK1): 100%
- remaining binding at 0.1 µM (PKNB(M.tuberculosis)): 100%
- remaining binding at 1 µM (MELK): 96%
- remaining binding at 1 µM (AURKB): 57%
- inhibition at 10 µM (Endothelin ETB): 3%
- remaining binding at 1 µM (EGFR(L858R,T790M)): 81%
- remaining binding at 1 µM (MEK1): 85%
- remaining binding at 1 µM [4]: 96%
- remaining binding at 1 µM (LRRK2(G2019S)): 86%
- remaining binding at 1 µM (FLT4): 74%
- remaining binding at 1 µM (FGR): 66%
- remaining binding at 1 µM (EGFR(L858R)): 76%
- remaining binding at 0.1 µM [5]: 100%
- remaining binding at 1 µM (MEK6): 94%
- remaining binding at 1 µM (IRAK3): 52%
- remaining binding at 0.1 µM (WEE1): 98%
- remaining binding at 0.1 µM (SgK110): 100%
- remaining binding at 1 µM (BRSK1): 83%
- remaining binding at 1 µM (GRK1): 88%
- remaining binding at 0.1 µM (TSSK1B): 78%
- remaining binding at 1 µM (FLT3(D835H)): 57%
- IC50 (α2C receptor): 340 nM
- remaining binding at 1 µM (MARK1): 89%
- remaining binding at 1 µM (LKB1): 77%
- remaining binding at 1 µM (FER): 97%
